Results as given in patent US10040781B2, “Tank-binding kinase inhibitor compounds” (Gilead Sciences, Inc., priority 2014, dated 2018).
pIC50: −log10 of the molar value.

Columns and labels:
hJAK2 = hJAK2 (Homo sapiens (Human), UniProt O60674); test: hJAK2 LANCE TR-FRET enzymatic assay; format: biochemical; details: read-out: JAK2 IC50
TBK1 = TBK1 (Homo sapiens (Human), UniProt Q9UHD2); test: TBK1 TR-FRET enzymatic assay;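 note: phosphorylation of a biotinylated Ser/Thr peptide by purified full-length recombinant TBK1, read by TR-FRET after 240 min at 25 °C, IC50 is the geometric mean of at least four runs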
TBK1, sequence (Q9UHD2 whole entry): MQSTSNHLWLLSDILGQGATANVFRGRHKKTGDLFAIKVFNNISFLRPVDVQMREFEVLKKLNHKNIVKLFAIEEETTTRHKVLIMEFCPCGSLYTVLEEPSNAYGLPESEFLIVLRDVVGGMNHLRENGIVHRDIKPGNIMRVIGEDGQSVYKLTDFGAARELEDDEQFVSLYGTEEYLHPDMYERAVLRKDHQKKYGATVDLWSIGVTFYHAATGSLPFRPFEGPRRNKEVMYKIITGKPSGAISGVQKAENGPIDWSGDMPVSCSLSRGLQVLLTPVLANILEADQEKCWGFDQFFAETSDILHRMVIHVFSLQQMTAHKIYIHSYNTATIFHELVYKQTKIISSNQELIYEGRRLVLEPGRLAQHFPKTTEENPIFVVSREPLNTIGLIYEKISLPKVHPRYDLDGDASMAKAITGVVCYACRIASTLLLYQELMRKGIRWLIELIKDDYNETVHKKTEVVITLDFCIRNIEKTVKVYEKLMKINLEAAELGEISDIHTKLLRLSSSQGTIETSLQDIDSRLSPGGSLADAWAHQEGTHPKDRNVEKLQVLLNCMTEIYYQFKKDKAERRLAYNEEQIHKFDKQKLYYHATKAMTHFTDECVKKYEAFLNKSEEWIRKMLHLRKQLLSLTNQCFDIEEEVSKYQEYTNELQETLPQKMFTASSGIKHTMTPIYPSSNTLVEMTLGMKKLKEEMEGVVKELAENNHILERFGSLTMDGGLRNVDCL

hJAK2, sequence (O60674 whole entry): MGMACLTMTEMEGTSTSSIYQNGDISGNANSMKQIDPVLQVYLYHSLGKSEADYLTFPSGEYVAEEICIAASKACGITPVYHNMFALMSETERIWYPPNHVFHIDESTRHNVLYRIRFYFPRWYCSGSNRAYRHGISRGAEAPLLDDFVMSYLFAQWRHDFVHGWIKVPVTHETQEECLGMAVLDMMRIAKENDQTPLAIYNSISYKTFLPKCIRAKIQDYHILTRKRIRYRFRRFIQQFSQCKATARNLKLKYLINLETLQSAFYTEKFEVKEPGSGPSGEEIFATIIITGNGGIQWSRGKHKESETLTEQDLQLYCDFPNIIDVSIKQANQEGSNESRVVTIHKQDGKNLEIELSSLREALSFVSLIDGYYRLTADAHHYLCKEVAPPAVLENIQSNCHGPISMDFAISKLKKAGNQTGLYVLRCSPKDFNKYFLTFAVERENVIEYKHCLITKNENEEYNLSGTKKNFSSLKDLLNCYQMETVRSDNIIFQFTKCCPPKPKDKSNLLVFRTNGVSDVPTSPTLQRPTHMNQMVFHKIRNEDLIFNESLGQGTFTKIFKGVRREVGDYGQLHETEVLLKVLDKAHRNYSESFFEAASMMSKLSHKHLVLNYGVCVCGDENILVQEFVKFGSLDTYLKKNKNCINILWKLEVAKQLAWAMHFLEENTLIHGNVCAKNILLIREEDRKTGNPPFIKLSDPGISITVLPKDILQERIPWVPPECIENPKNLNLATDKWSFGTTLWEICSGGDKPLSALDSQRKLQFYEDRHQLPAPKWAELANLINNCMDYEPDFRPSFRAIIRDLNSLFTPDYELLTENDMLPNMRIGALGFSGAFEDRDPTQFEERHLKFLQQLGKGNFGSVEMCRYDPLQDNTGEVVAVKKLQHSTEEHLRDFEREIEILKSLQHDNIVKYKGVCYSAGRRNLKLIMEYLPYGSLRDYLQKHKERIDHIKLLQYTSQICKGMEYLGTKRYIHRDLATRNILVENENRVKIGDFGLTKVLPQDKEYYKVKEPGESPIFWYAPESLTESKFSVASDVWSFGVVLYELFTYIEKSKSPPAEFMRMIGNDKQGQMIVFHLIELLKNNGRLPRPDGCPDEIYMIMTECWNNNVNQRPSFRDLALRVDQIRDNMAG

SMILES	pIC50 (hJAK2)	pIC50 (TBK1)
N#Cc1cc(-c2ncnc(Nc3ccc(N4CCN(C5COC5)CC4)cc3)n2)ccc1O[C@@H]1CCN(C(=O)CO)C1 [Example 30, (R)-2-((1-(2-hydroxyacetyl)pyrrolidin-3-yl)oxy)-5-(4-((4-(4-(oxetan-3-yl)piperazin-1-yl)phenyl)amino)-1,3,5-triazin-2-yl)benzonitrile]	6.41	8.52
N#CCC(=O)N1CCC(Oc2ccc(-c3ncnc(Nc4ccc(N5CCN(C6COC6)CC5)cc4)n3)cc2C#N)CC1 [Example 44, 2-((1-(2-cyanoacetyl)piperidin-4-yl)oxy)-5-(4-((4-(4-(oxetan-3-yl)piperazin-1-yl)phenyl)amino)-1,3,5-triazin-2-yl)benzonitrile]	6.35	8.05
CS(=O)(=O)c1ccc(Nc2ncnc(-c3ccc(OC4CCOCC4)c(C#N)c3)n2)cc1 [Example 50, 5-(4-((4-(methylsulfonyl)phenyl)amino)-1,3,5-triazin-2-yl)-2-((tetrahydro-2H-pyran-4-yl)oxy)benzonitrile]	< 6.00	8.30
N#Cc1cc(-c2ncnc(Nc3cccc(N4CCOCC4)c3)n2)ccc1O[C@@H]1CCN(C(=O)CO)C1 [Example 81, (R)-2-((1-(2-hydroxyacetyl)pyrrolidin-3-yl)oxy)-5-(4-((3-morpholinophenyl)amino)-1,3,5-triazin-2-yl)benzonitrile]	6.54	7.57
N#Cc1cc(-c2ncnc(Nc3ccc(C(N)=O)cc3)n2)ccc1O[C@@H]1CCN(C(=O)CO)C1 [Example 85, (R)-4-((4-(3-cyano-4-((1-(2-hydroxyacetyl)pyrrolidin-3-yl)oxy)phenyl)-1,3,5-triazin-2-yl)amino)benzamide]	6.17	7.89
N#Cc1cc(-c2ncnc(Nc3ccc(N4CCN(C5COC5)CC4)cc3)n2)ccc1O[C@H]1CCN(C(=O)c2nnc[nH]2)CC1(F)F [Example 166, (S)-2-((3,3-difluoro-1-(4H-1,2,4-triazole-3-carbonyl)piperidin-4-yl)oxy)-5-(4-((4-(4-(oxetan-3-yl)piperazin-1-yl)phenyl)amino)-1,3,5-triazin-2-yl)benzonitrile]	7.28	8.70
Cc1n[nH]c(C(=O)N2CC[C@H](Oc3ccc(-c4ncnc(Nc5ccc(N6CCN(C7COC7)CC6)cc5)n4)cc3C#N)[C@H](F)C2)n1 [Example 451, 2-(((3R,4S)-3-fluoro-1-(3-methyl-1H-1,2,4-triazole-5-carbonyl)piperidin-4-yl)oxy)-5-(4-((4-(4-(oxetan-3-yl)piperazin-1-yl)phenyl)amino)-1,3,5-triazin-2-yl)benzonitrile]	7.05	
N#Cc1cc(-c2ncnc(Nc3cnn(C(F)F)c3)n2)ccc1O[C@H]1CCN(C(=O)CO)C[C@H]1F [Example 454, 5-(4-((1-(difluoromethyl)-1H-pyrazol-4-yl)amino)-1,3,5-triazin-2-yl)-2-(((3R,4S)-3-fluoro-1-(2-hydroxyacetyl)piperidin-4-yl)oxy)benzonitrile]	6.21	
C[C@@H](O)C(=O)N1CC[C@H](Oc2ccc(-c3ncnc(Nc4ccc(N5CCN(C6COC6)CC5)cc4)n3)cc2C#N)[C@H](F)C1 [Example 464, 2-(((3R,4S)-3-fluoro-1-((R)-2-hydroxypropanoyl)piperidin-4-yl)oxy)-5-(4-((4-(4-(oxetan-3-yl)piperazin-1-yl)phenyl)amino)-1,3,5-triazin-2-yl)benzonitrile]	6.48	
CC(=O)N1CC[C@H](Oc2ccc(-c3ncnc(Nc4ccc(S(C)(=N)=O)cc4)n3)cc2C#N)C(F)(F)C1 (stereo partly shown) [Example 481]	6.49	
COc1cc(Nc2ncnc(-c3ccc(O[C@H]4CCN(C(=O)[C@H](C)O)C[C@H]4F)c(C#N)c3)n2)cnc1N1CCN(C2COC2)CC1 [Example 514, 2-(((3R,4S)-3-fluoro-1-((S)-2-hydroxypropanoyl)piperidin-4-yl)oxy)-5-(4-((5-methoxy-6-(4-(oxetan-3-yl)piperazin-1-yl)pyridin-3-yl)amino)-1,3,5-triazin-2-yl)benzonitrile]	≤ 6.00	
C[C@H](O)C(=O)N1CC[C@H](Oc2ccc(-c3ncnc(Nc4ccc([C@@H]5C(=O)N(C)CCN5C)cc4)n3)cc2C#N)[C@H](F)C1 [Example 518, 5-(4-((4-((R)-1,4-dimethyl-3-oxopiperazin-2-yl)phenyl)amino)-1,3,5-triazin-2-yl)-2-(((3R,4S)-3-fluoro-1-((S)-2-hydroxypropanoyl)piperidin-4-yl)oxy)benzonitrile]	≤ 6.00	
N#Cc1cc(-c2ncnc(Nc3ccc(N4CCN(C5COC5)CC4)cc3)n2)ccc1O[C@H]1CCN(C(=O)[C@@H]2CSC(=O)N2)C[C@H]1F [Example 530, 2-(((3R,4S)-3-fluoro-1-((R)-2-oxothiazolidine-4-carbonyl)piperidin-4-yl)oxy)-5-(4-((4-(4-(oxetan-3-yl)piperazin-1-yl)phenyl)amino)-1,3,5-triazin-2-yl)benzonitrile]	6.54	
COc1cc(Nc2ncnc(-c3ccc(O[C@H]4CCN(C(=O)CC#N)C[C@H]4F)c(C#N)c3)n2)ccc1N1CCN(C2COC2)CC1 [Example 558, 2-(((3R,4S)-1-(2-cyanoacetyl)-3-fluoropiperidin-4-yl)oxy)-5-(4-((3-methoxy-4-(4-(oxetan-3-yl)piperazin-1-yl)phenyl)amino)-1,3,5-triazin-2-yl)benzonitrile]	7.59	
Cc1cc(Nc2ncnc(-c3ccc(O[C@H]4CCN(C(=O)[C@@H](O)CO)C[C@H]4F)c(C#N)c3)n2)ccc1N1CCN(C2COC2)CC1 [Example 575, 2-(((3R,4S)-1-((S)-2,3-dihydroxypropanoyl)-3-fluoropiperidin-4-yl)oxy)-5-(4-((3-methyl-4-(4-(oxetan-3-yl)piperazin-1-yl)phenyl)amino)-1,3,5-triazin-2-yl)benzonitrile]	7.21	
Cc1cc(Nc2ncnc(-c3ccc(O[C@H]4CCN(C(=O)[C@H](O)CO)C[C@H]4F)c(C#N)c3)n2)ccc1N1CCN(C2COC2)CC1 [Example 576, 2-(((3R,4S)-1-((R)-2,3-dihydroxypropanoyl)-3-fluoropiperidin-4-yl)oxy)-5-(4-((3-methyl-4-(4-(oxetan-3-yl)piperazin-1-yl)phenyl)amino)-1,3,5-triazin-2-yl)benzonitrile]	7.25	
COc1cc(Nc2ncnc(-c3ccc(O[C@H]4CCN(C(=O)[C@@H](O)CO)C[C@H]4F)c(C#N)c3)n2)ccc1N1CCN(C2COC2)CC1 [Example 578, 2-(((3R,4S)-1-((S)-2,3-dihydroxypropanoyl)-3-fluoropiperidin-4-yl)oxy)-5-(4-((3-methoxy-4-(4-(oxetan-3-yl)piperazin-1-yl)phenyl)amino)-1,3,5-triazin-2-yl)benzonitrile]	7.15	
COc1cc(Nc2ncnc(-c3ccc(O[C@H]4CCN(C(=O)[C@H](O)CO)C[C@H]4F)c(C#N)c3)n2)ccc1N1CCN(C2COC2)CC1 [Example 579, 2-(((3R,4S)-1-((R)-2,3-dihydroxypropanoyl)-3-fluoropiperidin-4-yl)oxy)-5-(4-((3-methoxy-4-(4-(oxetan-3-yl)piperazin-1-yl)phenyl)amino)-1,3,5-triazin-2-yl)benzonitrile]	7.32	
C[C@H](O)C(=O)N1CC[C@H](Oc2ccc(-c3ncnc(Nc4ccc(N5CCN6CCOC[C@H]6C5)cc4)n3)cc2C#N)[C@H](F)C1 [Example 619, 2-(((3R,4S)-3-fluoro-1-((S)-2-hydroxypropanoyl)piperidin-4-yl)oxy)-5-(4-((4-((R)-hexahydropyrazino[2,1-c][1,4]oxazin-8(1H)-yl)phenyl)amino)-1,3,5-triazin-2-yl)benzonitrile]	6.44	
